According to ChEMBL document CHEMBL1697731, “Cheminformatics analysis of assertions mined from literature that describe drug-induced liver injury in different species” (Chem Res Toxicol, 2010):

What was measured:
Hepatotoxicity [1] = test: Literature-mined compound from Fourches et al multi-species drug-induced liver injury (DILI) dataset, effect in rodents; details: rodentia
Hepatotoxicity [2] = test: Literature-mined compound from Fourches et al multi-species drug-induced liver injury (DILI) dataset, effect in humans; details: human
Hepatotoxicity [3] = test: Literature-mined compound from Fourches et al multi-species drug-induced liver injury (DILI) dataset, effect in non-rodents

## Nc1nc2ncc(CNc3ccc(C(=O)N[C@@H](CCC(=O)O)C(=O)O)cc3)nc2c(=O)[nH]1 [FOLIC ACID]
Hepatotoxicity [1]
  Hepatotoxicity: drug-induced liver injury reported
Hepatotoxicity [2]
  Hepatotoxicity: drug-induced liver injury reported
Hepatotoxicity [3]
  Hepatotoxicity: no drug-induced liver injury reported

## C[C@]12C=CC(=O)C=C1CC[C@@H]1[C@@H]2C(=O)C[C@@]2(C)[C@H]1CC[C@]2(O)C(=O)CO [PREDNISONE]
Hepatotoxicity [1]
  Hepatotoxicity: no drug-induced liver injury reported
Hepatotoxicity [2]
  Hepatotoxicity: drug-induced liver injury reported
Hepatotoxicity [3]
  Hepatotoxicity: drug-induced liver injury reported

## CC(C)(S)[C@@H](N)C(=O)O [PENICILLAMINE]
Hepatotoxicity [1]
  Hepatotoxicity: drug-induced liver injury reported
Hepatotoxicity [2]
  Hepatotoxicity: drug-induced liver injury reported
Hepatotoxicity [3]
  Hepatotoxicity: drug-induced liver injury reported

## ClC(Cl)=C(Cl)Cl [TETRACHLOROETHYLENE]
Hepatotoxicity [1]
  Hepatotoxicity: drug-induced liver injury reported
Hepatotoxicity [2]
  Hepatotoxicity: drug-induced liver injury reported
Hepatotoxicity [3]
  Hepatotoxicity: no drug-induced liver injury reported

## CC(=O)Oc1c(C)c(C)c2c(c1C)CCC(C)(CCC[C@H](C)CCC[C@H](C)CCCC(C)C)O2 (stereo not given in full) [TOCOPHEROL ACETATE]
Hepatotoxicity [1]
  Hepatotoxicity: drug-induced liver injury reported
Hepatotoxicity [2]
  Hepatotoxicity: no drug-induced liver injury reported
Hepatotoxicity [3]
  Hepatotoxicity: no drug-induced liver injury reported

## C=CCN1CC[C@]23c4c5ccc(O)c4O[C@H]2C(=O)CC[C@@]3(O)[C@H]1C5 [NALOXONE]
Hepatotoxicity [1]
  Hepatotoxicity: drug-induced liver injury reported
Hepatotoxicity [2]
  Hepatotoxicity: no drug-induced liver injury reported
Hepatotoxicity [3]
  Hepatotoxicity: no drug-induced liver injury reported

## O=C1CC[C@@]2(O)[C@H]3Cc4ccc(O)c5c4[C@@]2(CCN3CC2CC2)[C@H]1O5 [NALTREXONE]
Hepatotoxicity [1]
  Hepatotoxicity: drug-induced liver injury reported
Hepatotoxicity [2]
  Hepatotoxicity: drug-induced liver injury reported
Hepatotoxicity [3]
  Hepatotoxicity: no drug-induced liver injury reported

## CCC(=O)O[C@H]1[C@H](O[C@@H]2[C@@H](C)[C@H](O[C@H]3C[C@@](C)(OC)[C@@H](O)[C@H](C)O3)[C@@H](C)C(=O)O[C@H](CC)[C@@](C)(O)[C@H](O)[C@@H](C)C(=O)[C@H](C)C[C@@]2(C)O)O[C@H](C)C[C@@H]1N(C)C.CCCCCCCCCCCCOS(=O)(=O)O [ERYTHROMYCIN ESTOLATE]
Hepatotoxicity [1]
  Hepatotoxicity: drug-induced liver injury reported
Hepatotoxicity [2]
  Hepatotoxicity: drug-induced liver injury reported
Hepatotoxicity [3]
  Hepatotoxicity: no drug-induced liver injury reported

## Cc1ccc(C)c(OCCCC(C)(C)C(=O)O)c1 [GEMFIBROZIL]
Hepatotoxicity [1]
  Hepatotoxicity: drug-induced liver injury reported
Hepatotoxicity [2]
  Hepatotoxicity: drug-induced liver injury reported
Hepatotoxicity [3]
  Hepatotoxicity: no drug-induced liver injury reported

## Cc1ncc([N+](=O)[O-])n1CCO [METRONIDAZOLE]
Hepatotoxicity [1]
  Hepatotoxicity: drug-induced liver injury reported
Hepatotoxicity [2]
  Hepatotoxicity: drug-induced liver injury reported
Hepatotoxicity [3]
  Hepatotoxicity: no drug-induced liver injury reported

## O=C([O-])c1ccccc1.[Na+] [SODIUM BENZOATE]
Hepatotoxicity [1]
  Hepatotoxicity: drug-induced liver injury reported
Hepatotoxicity [2]
  Hepatotoxicity: no drug-induced liver injury reported
Hepatotoxicity [3]
  Hepatotoxicity: no drug-induced liver injury reported

## NC(=O)N1c2ccccc2C=Cc2ccccc21 [CARBAMAZEPINE]
Hepatotoxicity [1]
  Hepatotoxicity: drug-induced liver injury reported
Hepatotoxicity [2]
  Hepatotoxicity: drug-induced liver injury reported
Hepatotoxicity [3]
  Hepatotoxicity: no drug-induced liver injury reported

## CC[C@@]1(O)C(=O)OCc2c1cc1n(c2=O)Cc2cc3ccccc3nc2-1 [CAMPTOTHECIN]
Hepatotoxicity [1]
  Hepatotoxicity: drug-induced liver injury reported
Hepatotoxicity [2]
  Hepatotoxicity: drug-induced liver injury reported
Hepatotoxicity [3]
  Hepatotoxicity: no drug-induced liver injury reported

## CN1C(C(=O)Nc2ccccn2)=C(O)c2sc(Cl)cc2S1(=O)=O [LORNOXICAM]
Hepatotoxicity [1]
  Hepatotoxicity: no drug-induced liver injury reported
Hepatotoxicity [2]
  Hepatotoxicity: drug-induced liver injury reported
Hepatotoxicity [3]
  Hepatotoxicity: no drug-induced liver injury reported

## O=NN(CCCl)C(=O)NCCCl [CARMUSTINE]
Hepatotoxicity [1]
  Hepatotoxicity: drug-induced liver injury reported
Hepatotoxicity [2]
  Hepatotoxicity: drug-induced liver injury reported
Hepatotoxicity [3]
  Hepatotoxicity: no drug-induced liver injury reported

## COc1cccc(C2(O)CCCCC2CN(C)C)c1 (stereo not given) [TRAMADOL]
Hepatotoxicity [1]
  Hepatotoxicity: drug-induced liver injury reported
Hepatotoxicity [2]
  Hepatotoxicity: drug-induced liver injury reported
Hepatotoxicity [3]
  Hepatotoxicity: no drug-induced liver injury reported

## CCC(=O)C(CC(C)N(C)C)(c1ccccc1)c1ccccc1 (stereo not given) [METHADONE]
Hepatotoxicity [1]
  Hepatotoxicity: drug-induced liver injury reported
Hepatotoxicity [2]
  Hepatotoxicity: drug-induced liver injury reported
Hepatotoxicity [3]
  Hepatotoxicity: no drug-induced liver injury reported

## C[C@H]1O[C@H](O[C@H]2[C@H](O)[C@@H](O)[C@@H](O[C@H]3[C@H](O)[C@@H](O)C(O)O[C@@H]3CO)O[C@@H]2CO)[C@H](O)[C@@H](O)[C@@H]1N[C@H]1C=C(CO)[C@@H](O)[C@H](O)[C@H]1O (stereo not given in full) [ACARBOSE]
Hepatotoxicity [1]
  Hepatotoxicity: drug-induced liver injury reported
Hepatotoxicity [2]
  Hepatotoxicity: drug-induced liver injury reported
Hepatotoxicity [3]
  Hepatotoxicity: no drug-induced liver injury reported

## O=C(NCCO[N+](=O)[O-])c1cccnc1 [NICORANDIL]
Hepatotoxicity [1]
  Hepatotoxicity: drug-induced liver injury reported
Hepatotoxicity [2]
  Hepatotoxicity: no drug-induced liver injury reported
Hepatotoxicity [3]
  Hepatotoxicity: no drug-induced liver injury reported

## CO/N=C(\C(=O)N[C@@H]1C(=O)N2C(C(=O)O)=C(CSc3nc(=O)c(=O)[nH]n3C)CS[C@H]12)c1csc(N)n1 [CEFTRIAXONE]
Hepatotoxicity [1]
  Hepatotoxicity: drug-induced liver injury reported
Hepatotoxicity [2]
  Hepatotoxicity: drug-induced liver injury reported
Hepatotoxicity [3]
  Hepatotoxicity: drug-induced liver injury reported

## N[C@@H]1C[C@H]1c1ccccc1.N[C@H]1C[C@@H]1c1ccccc1 [TRANYLCYPROMINE]
Hepatotoxicity [1]; Liver
  Hepatotoxicity: drug-induced liver injury reported
Hepatotoxicity [2]; Liver
  Hepatotoxicity: drug-induced liver injury reported
Hepatotoxicity [3]; Liver
  Hepatotoxicity: drug-induced liver injury reported

## CC(=O)c1ccc(S(=O)(=O)NC(=O)NC2CCCCC2)cc1 [ACETOHEXAMIDE]
Hepatotoxicity [1]
  Hepatotoxicity: no drug-induced liver injury reported
Hepatotoxicity [2]
  Hepatotoxicity: drug-induced liver injury reported
Hepatotoxicity [3]
  Hepatotoxicity: no drug-induced liver injury reported

## CC1(C)S[C@@H]2[C@H](NC(=O)[C@H](NC(=O)N3CCNC3=O)c3ccccc3)C(=O)N2[C@H]1C(=O)O [AZLOCILLIN]
Hepatotoxicity [1]
  Hepatotoxicity: no drug-induced liver injury reported
Hepatotoxicity [2]
  Hepatotoxicity: drug-induced liver injury reported
Hepatotoxicity [3]
  Hepatotoxicity: no drug-induced liver injury reported

## O=C1CN(/N=C/c2ccc([N+](=O)[O-])o2)C(=O)N1 [NITROFURANTOIN]
Hepatotoxicity [1]; Liver
  Hepatotoxicity: drug-induced liver injury reported
Hepatotoxicity [2]; Liver
  Hepatotoxicity: drug-induced liver injury reported
Hepatotoxicity [3]; Liver
  Hepatotoxicity: drug-induced liver injury reported

## CN(C)CCOC(c1ccccc1)c1ccccc1 [DIPHENHYDRAMINE]
Hepatotoxicity [1]; Liver
  Hepatotoxicity: drug-induced liver injury reported
Hepatotoxicity [2]; Liver
  Hepatotoxicity: no drug-induced liver injury reported
Hepatotoxicity [3]; Liver
  Hepatotoxicity: no drug-induced liver injury reported

## CNC(=O)c1cc(Oc2ccc(NC(=O)Nc3ccc(Cl)c(C(F)(F)F)c3)cc2)ccn1.Cc1ccc(S(=O)(=O)O)cc1 [SORAFENIB TOSYLATE]
Hepatotoxicity [1]
  Hepatotoxicity: no drug-induced liver injury reported
Hepatotoxicity [2]
  Hepatotoxicity: drug-induced liver injury reported
Hepatotoxicity [3]
  Hepatotoxicity: no drug-induced liver injury reported

## CC(C)NCC(O)c1ccc(NS(C)(=O)=O)cc1 (stereo not given) [SOTALOL]
Hepatotoxicity [1]
  Hepatotoxicity: drug-induced liver injury reported
Hepatotoxicity [2]
  Hepatotoxicity: no drug-induced liver injury reported
Hepatotoxicity [3]
  Hepatotoxicity: no drug-induced liver injury reported

## CC1(C)S[C@@H]2[C@H](NC(=O)Cc3ccccc3)C(=O)N2[C@H]1C(=O)O [PENICILLIN G]
Hepatotoxicity [1]
  Hepatotoxicity: drug-induced liver injury reported
Hepatotoxicity [2]
  Hepatotoxicity: drug-induced liver injury reported
Hepatotoxicity [3]
  Hepatotoxicity: drug-induced liver injury reported

## Cc1ccc(N(CC2=NCCN2)c2cccc(O)c2)cc1 [PHENTOLAMINE]
Hepatotoxicity [1]
  Hepatotoxicity: drug-induced liver injury reported
Hepatotoxicity [2]
  Hepatotoxicity: no drug-induced liver injury reported
Hepatotoxicity [3]
  Hepatotoxicity: drug-induced liver injury reported

## c1ccc2[nH]c(-c3cscn3)nc2c1 [THIABENDAZOLE]
Hepatotoxicity [1]
  Hepatotoxicity: drug-induced liver injury reported
Hepatotoxicity [2]
  Hepatotoxicity: drug-induced liver injury reported
Hepatotoxicity [3]
  Hepatotoxicity: drug-induced liver injury reported

## CC[C@H]1OC(=O)[C@H](C)[C@@H](O[C@H]2C[C@@](C)(OC)[C@@H](O)[C@H](C)O2)[C@H](C)[C@@H](O[C@@H]2O[C@H](C)C[C@H](N(C)C)[C@H]2O)[C@](C)(O)C[C@@H](C)C(=O)[C@H](C)[C@@H](O)[C@]1(C)O [ERYTHROMYCIN]
Hepatotoxicity [1]
  Hepatotoxicity: drug-induced liver injury reported
Hepatotoxicity [2]
  Hepatotoxicity: drug-induced liver injury reported
Hepatotoxicity [3]
  Hepatotoxicity: no drug-induced liver injury reported

## O=C(NCN1CCOCC1)c1cnccn1 [MORINAMIDE]
Hepatotoxicity [1]
  Hepatotoxicity: no drug-induced liver injury reported
Hepatotoxicity [2]
  Hepatotoxicity: drug-induced liver injury reported
Hepatotoxicity [3]
  Hepatotoxicity: no drug-induced liver injury reported

## CO[C@@H]1[C@@H](OC(N)=O)[C@@H](O)[C@H](Oc2ccc3c(O)c(NC(=O)c4ccc(O)c(CC=C(C)C)c4)c(=O)oc3c2C)OC1(C)C [NOVOBIOCIN]
Hepatotoxicity [1]
  Hepatotoxicity: drug-induced liver injury reported
Hepatotoxicity [2]
  Hepatotoxicity: drug-induced liver injury reported
Hepatotoxicity [3]
  Hepatotoxicity: no drug-induced liver injury reported

## O=C(O)CCCCCCNC1c2ccccc2CCc2ccccc21 [AMINEPTINE]
Hepatotoxicity [1]
  Hepatotoxicity: drug-induced liver injury reported
Hepatotoxicity [2]
  Hepatotoxicity: drug-induced liver injury reported
Hepatotoxicity [3]
  Hepatotoxicity: no drug-induced liver injury reported

## C[C@]12CC[C@@H]3c4ccc(OS(=O)(=O)O)cc4CC[C@H]3[C@@H]1CCC2=O [ESTRONE SULFURIC ACID]
Hepatotoxicity [1]
  Hepatotoxicity: drug-induced liver injury reported
Hepatotoxicity [2]
  Hepatotoxicity: no drug-induced liver injury reported
Hepatotoxicity [3]
  Hepatotoxicity: no drug-induced liver injury reported
